Read-outs that look alike come from different tables or passages of the source.
Tested on: iCell cardiomyocytes (human iPSC-derived cardiomyocytes)
Assay: High-content imaging of cytotoxicity and mitochondrial integrity in iPSC-CMs
Assay type: cell-based
Conditions: Homo sapiens; for viability at 0.01 µM / activity at 0.01 µM / viability at 0.1 µM / activity at 0.1 µM / viability at 1 µM / activity at 1 µM / viability at 10 µM / activity at 10 µM / viability at 100 µM / activity at 100 µM: Cardiomyocyte, 0.00 µM = 100.00; for viability at 0.1 µM / activity at 0.1 µM: 0.10 µM; for minimal effective concentration: iPSC-CM
How it was run: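 Cardiomyocytes grown on gelatinized 384-well plates received fresh medium on the experiment day and were then exposed to chemicals at 0.01–100μM. Nuclei and mitochondria were labeled with Hoechst 33342 and MitoTracker™ Orange, then fixed, and imaged on an ImageXpress® Micro Confocal system. Four-parameter logistic concentration–response fits in R, with a one-standard-deviation vehicle cutoff, gave point-of-departure values.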

Oc1ccccc1-c1ccc(Cl)cc1 [2'-OH PCB3]
viability at 0.01 µM (1.5 h, read-out: cm.cam.90min): 104%
activity at 0.01 µM (1.5 h, read-out: cm.mii.90min): 111%
activity at 0.01 µM (1.5 h, read-out: cm.mito.90min): 104%
viability at 0.01 µM (1.5 h, read-out: cm.tc.90min): 104%
viability at 0.1 µM (1.5 h, read-out: cm.cam.90min): 95.6%
activity at 0.1 µM (1.5 h, read-out: cm.mii.90min): 113%
activity at 0.1 µM (1.5 h, read-out: cm.mito.90min): 95.6%
viability at 0.1 µM (1.5 h, read-out: cm.tc.90min): 95.6%
viability at 1 µM (1.5 h, read-out: cm.cam.90min): 101%
activity at 1 µM (1.5 h, read-out: cm.mii.90min): 101%
activity at 1 µM (1.5 h, read-out: cm.mito.90min): 101%
viability at 1 µM (1.5 h, read-out: cm.tc.90min): 101%
viability at 10 µM (1.5 h, read-out: cm.cam.90min): 102%
activity at 10 µM (1.5 h, read-out: cm.mii.90min): 92.5%
activity at 10 µM (1.5 h, read-out: cm.mito.90min): 102%
viability at 10 µM (1.5 h, read-out: cm.tc.90min): 102%
viability at 100 µM (1.5 h, read-out: cm.cam.90min): 0%
activity at 100 µM (1.5 h, read-out: cm.mii.90min): 32.7%
activity at 100 µM (1.5 h, read-out: cm.mito.90min): 0.07%
viability at 100 µM (1.5 h, read-out: cm.tc.90min): 0.07%
viability at 0.01 µM (24 h, read-out: cm.cam.24hrs): 95.1%
activity at 0.01 µM (24 h, read-out: cm.mii.24hrs): 98.5%
activity at 0.01 µM (24 h, read-out: cm.mito.24hrs): 92.6%
viability at 0.01 µM (24 h, read-out: cm.tc.24hrs): 94.5%
viability at 0.1 µM (24 h, read-out: cm.cam.24hrs): 94.5%
activity at 0.1 µM (24 h, read-out: cm.mii.24hrs): 96%
activity at 0.1 µM (24 h, read-out: cm.mito.24hrs): 91.2%
viability at 0.1 µM (24 h, read-out: cm.tc.24hrs): 94.3%
viability at 1 µM (24 h, read-out: cm.cam.24hrs): 99.7%
activity at 1 µM (24 h, read-out: cm.mii.24hrs): 98.3%
activity at 1 µM (24 h, read-out: cm.mito.24hrs): 96.7%
viability at 1 µM (24 h, read-out: cm.tc.24hrs): 99.8%
viability at 10 µM (24 h, read-out: cm.cam.24hrs): 103%
activity at 10 µM (24 h, read-out: cm.mii.24hrs): 74.7%
activity at 10 µM (24 h, read-out: cm.mito.24hrs): 104%
viability at 10 µM (24 h, read-out: cm.tc.24hrs): 103%
viability at 100 µM (24 h, read-out: cm.cam.24hrs): 0%
activity at 100 µM (24 h, read-out: cm.mii.24hrs): 0%
activity at 100 µM (24 h, read-out: cm.mito.24hrs): 0%
viability at 100 µM (24 h, read-out: cm.tc.24hrs): 0%
minimal effective concentration (1.5 h, read-out: cm.cam.90min POD): 32.8 µM
minimal effective concentration (1.5 h, read-out: cm.mii.90min POD): 9.15 µM
minimal effective concentration (1.5 h, read-out: cm.mito.90min POD): 41.4 µM
minimal effective concentration (1.5 h, read-out: cm.tc.90min POD): 34.5 µM
minimal effective concentration (24 h, read-out: cm.cam.24hrs POD): 40.4 µM
minimal effective concentration (24 h, read-out: cm.mii.24hrs POD): 6.56 µM
minimal effective concentration (24 h, read-out: cm.mito.24hrs POD): 29.8 µM
minimal effective concentration (24 h, read-out: cm.tc.24hrs POD): 35.9 µM
